Test results taken from ChEMBL document CHEMBL6092168, “Identification of novel indolinone derivatives as CTSC inhibitors to treat inflammatory bowel disease by modulating inflammatory factors” (Eur J Med Chem, 2024).
Active and inactive are the calls of the source. The calls are words filed in the database; no cut-off is given here.

Key:
Dipeptidyl peptidase 1 = Dipeptidyl peptidase 1 (Homo sapiens, UniProt P53634); test: Inhibition of human recombinant Cathepsin C using Gly-Phe-AFC as substrate preincubated for 3 hrs followed by substrate addition and measured after 1 hr by fluorescence based multifunctional microplate reader analysis
Sequence of Dipeptidyl peptidase 1 (P53634 25-134 limits assumed): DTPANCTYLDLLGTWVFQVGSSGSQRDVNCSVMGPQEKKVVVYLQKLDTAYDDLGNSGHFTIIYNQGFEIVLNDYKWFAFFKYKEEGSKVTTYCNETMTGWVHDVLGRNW
Sequence of Dipeptidyl peptidase 1 (P53634 231-394 limits assumed): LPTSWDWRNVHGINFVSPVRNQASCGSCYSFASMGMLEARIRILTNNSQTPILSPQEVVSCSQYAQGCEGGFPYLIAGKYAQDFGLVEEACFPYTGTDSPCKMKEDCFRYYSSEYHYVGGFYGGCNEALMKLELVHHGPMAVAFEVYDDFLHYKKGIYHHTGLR
Sequence of Dipeptidyl peptidase 1 (P53634 395-463 limits assumed): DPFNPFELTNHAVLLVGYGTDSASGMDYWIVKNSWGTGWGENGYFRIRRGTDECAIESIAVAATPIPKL

RAW264.7 [1] = test: Anti-inflammatory activity in mouse RAW264.7 cells assessed as inhibition of LPS-induced NO production preincubated for 1 hr followed by LPS addition and measured after 24 hrs by Griess reagent based assay; assay type: functional, cell-based
RAW264.7 [2] = test: Anti-inflammatory activity in mouse RAW264.7 cells assessed as inhibition of LPS-induced IL-1beta production at 5 uM preincubated for 1 hr followed by LPS addition and measured after 24 hrs by ELISA relative to control; assay type: functional; design: scale not given: the % may be the effect or the level left
RAW264.7 [3] = test: Anti-inflammatory activity in mouse RAW264.7 cells assessed as inhibition of LPS-induced TNF-alpha production at 5 uM preincubated for 1 hr followed by LPS addition and measured after 24 hrs by ELISA relative to control; assay type: functional; design: scale not given: the % may be the effect or the level left

Row | Structure (SMILES) | IC50 (Dipeptidyl peptidase 1) [µM] | IC50 (RAW264.7 [1]) [µM] | Activity (RAW264.7 [2]; time 25 hrs) [%] | Activity (RAW264.7 [3]; time 25 hrs) [%] | Activity (RAW264.7 [2]; time 25.0 hrs) | Activity (RAW264.7 [3]; time 25.0 hrs)
1 | O=C(Nc1ccc(O)cc1)c1cccc(-c2ccc(CN3CCOCC3)cc2)c1 | 0.237 | 15.7 | 38.6 | 40.8 |  | 
2 | Nc1ccc(NC(=O)c2cccc(-c3ccc(CN4CCOCC4)cc3)c2)cc1 | > 1 | > 50 |  |  | inactive | inactive
3 | O=C(Nc1ccc2ccccc2c1)c1cccc(-c2ccc(CN3CCOCC3)cc2)c1 | 0.223 | 7.6 | 68.8 | 63.2 |  | 
4 | CC(=O)c1ccc(-c2cccc3c2NC(=O)/C3=C\c2ccnc3ccccc23)cc1 | 0.293 | 16.8 |  |  | inactive | inactive
5 | Nc1n[nH]c2ccc(-c3cccc4c3NC(=O)/C4=C\c3ccnc4ccccc34)cc12 | 0.398 | 15.6 | 59.3 | 37.8 |  | 
6 | O=C1Nc2c(cccc2-c2ccc(F)cc2)/C1=C/c1ccnc2ccccc12 | > 1 | 37.2 |  |  | inactive | inactive
7 | O=C(Nc1ccc(Cl)cc1)c1cccc(-c2ccc(CN3CCOCC3)cc2)c1 | 0.575 | > 50 |  |  | inactive | inactive
8 | O=C1Nc2c(cccc2-c2ccc(C(F)(F)F)cc2)/C1=C/c1ccnc2ccccc12 | > 1 | > 50 |  |  | inactive | inactive
9 | CNC(=O)c1ccccc1NC(=O)c1cccc(-c2ccc(CN3CCOCC3)cc2)c1 | > 1 | > 50 |  |  | inactive | inactive
10 | CNC(=O)c1cccc(NC(=O)c2cccc(-c3ccc(CN4CCOCC4)cc3)c2)c1 | > 1 | > 50 |  |  | inactive | inactive
11 | COc1ccc(NC(=O)c2cccc(-c3ccc(CN4CCOCC4)cc3)c2)cc1 | 0.731 | > 50 |  |  | inactive | inactive
12 | O=C(Nc1cccc(C(F)(F)F)c1)c1cccc(-c2ccc(CN3CCOCC3)cc2)c1 | > 1 | > 50 |  |  | inactive | inactive
13 | CC(C)c1ccccc1NC(=O)c1cccc(-c2ccc(CN3CCOCC3)cc2)c1 | > 1 | > 50 |  |  | inactive | inactive
14 | Nc1c(C(=O)Nc2nccc3ccccc23)cccc1-c1ccc(CN2CCOCC2)cc1 | 0.324 | 8.3 | 44.2 | 33.3 |  | 
15 | Nc1c(C(=O)Nc2ccc3ccccc3c2)cccc1-c1ccc(CN2CCOCC2)cc1 | 0.31 | 6.1 | 64.2 | 69.7 |  | 
16 | O=C(Nc1cccc(F)c1)c1cccc(-c2ccc(CN3CCOCC3)cc2)c1 | > 1 | > 50 |  |  | inactive | inactive
17 | Nc1c(C(=O)Nc2cccc3ccccc23)cccc1-c1ccc(CN2CCOCC2)cc1 | 0.272 | 8.4 | 67.1 | 40.1 |  | 
18 | CCc1ccccc1NC(=O)c1cccc(-c2ccc(CN3CCOCC3)cc2)c1 | > 1 | > 50 |  |  | inactive | inactive
19 | NC(=O)c1ccc(-c2cccc3c2NC(=O)/C3=C\c2ccnc3ccccc23)cc1 | 0.29 | 16.2 |  |  | inactive | inactive
20 | CC(=O)Nc1ccc(NC(=O)c2cccc(-c3ccc(CN4CCOCC4)cc3)c2)cc1 | 0.77 | > 50 |  |  | inactive | inactive

Row | Structure (SMILES) | IC50 (Dipeptidyl peptidase 1) [µM] | IC50 (RAW264.7 [1]) [µM] | Activity (RAW264.7 [2]; time 25 hrs) [%] | Activity (RAW264.7 [3]; time 25 hrs) [%] | Activity (RAW264.7 [2]; time 25.0 hrs) | Activity (RAW264.7 [3]; time 25.0 hrs)
21 | Cc1ccc(-c2cccc3c2NC(=O)/C3=C\c2ccnc3ccccc23)cc1 | > 1 | 18.7 |  |  | inactive | inactive
22 | CC(=O)Nc1ccc(-c2cccc3c2NC(=O)/C3=C\c2ccnc3ccccc23)cc1 | 0.303 | 16.2 |  |  | inactive | inactive
23 | Cc1ccccc1NC(=O)c1cccc(-c2ccc(CN3CCOCC3)cc2)c1 | > 1 | > 50 |  |  | inactive | inactive
24 | O=C1Nc2c(cccc2-c2ccc(OC(F)(F)F)cc2)/C1=C/c1ccnc2ccccc12 | > 1 | > 50 |  |  | inactive | inactive
25 | N#Cc1ccc(-c2cccc3c2NC(=O)/C3=C\c2ccnc3ccccc23)cc1 | > 1 | > 50 |  |  | inactive | inactive
26 | CCc1cccc(NC(=O)c2cccc(-c3ccc(CN4CCOCC4)cc3)c2)c1 | > 1 | > 50 |  |  | inactive | inactive
27 | Cc1ccc(NC(=O)c2cccc(-c3ccc(CN4CCOCC4)cc3)c2)cc1 | > 1 | > 50 |  |  | inactive | inactive
28 | O=C(Nc1cccc(Cl)c1)c1cccc(-c2ccc(CN3CCOCC3)cc2)c1 | 0.377 | > 50 | 40.2 | 35.5 |  | 
29 | O=C(Nc1cccc2ccccc12)c1cccc(-c2ccc(CN3CCOCC3)cc2)c1 | 0.263 | 8.2 | 63.2 | 54.3 |  | 
30 | O=C(Nc1ccccc1)c1cccc(-c2ccc(CN3CCOCC3)cc2)c1 | > 1 | > 50 |  |  | inactive | inactive
31 | O=C1Nc2c(cccc2-c2ccccc2)/C1=C/c1ccnc2ccccc12 | > 1 | > 50 |  |  | inactive | inactive
32 | O=C1Nc2c(cccc2-c2ccc(CN3CCNCC3)cc2)/C1=C/c1ccnc2ccccc12 | 0.128 | 5.1 | 82.5 | 68.7 |  | 
33 | CC(=O)Nc1ccccc1NC(=O)c1cccc(-c2ccc(CN3CCOCC3)cc2)c1 | 0.9 | > 50 |  |  | inactive | inactive
34 | O=C1Nc2c(cccc2-c2ccc3cn[nH]c3c2)/C1=C/c1ccnc2ccccc12 | 0.311 | 14.8 | 65.3 | 43.3 |  | 
35 | O=C1Nc2c(cccc2-c2ccc(N3CCOCC3)cc2)/C1=C/c1ccnc2ccccc12 | 0.537 | 11.3 |  |  | inactive | inactive
36 | CCc1ccc(-c2cccc3c2NC(=O)/C3=C\c2ccnc3ccccc23)cc1 | > 1 | > 50 |  |  | inactive | inactive
37 | O=C1Nc2c(cccc2-c2ccc3[nH]ccc3c2)/C1=C/c1ccnc2ccccc12 | 0.195 | 6.8 | 63.5 | 43.2 |  | 
38 | O=C(Nc1nccc2ccccc12)c1cccc(-c2ccc(CN3CCOCC3)cc2)n1 | 0.244 | > 50 |  |  | inactive | inactive
39 | Nc1c(C(=O)Nc2cncc3ccccc23)cccc1-c1ccc(CN2CCOCC2)cc1 | 0.222 | 5.3 | 62.3 | 60.8 |  | 
40 | O=C(Nc1ccccc1F)c1cccc(-c2ccc(CN3CCOCC3)cc2)c1 | > 1 | > 50 |  |  | inactive | inactive
